The values below come from ChEMBL document CHEMBL1150120, “New vibsane diterpenes and lupane triterpenes from Viburnum odoratissimum” (2002).

Test [1] relates to NUGC. In words: Cytotoxicity against human NUGC cells assessed as cell growth at 10 uM after 3 to 24 hrs by MTS assay. Conditions: read-out: Activity. The class given is functional.
The test system of test [2] is NUGC. The test can be described thus: Cytotoxicity against human NUGC cells assessed as cell growth at 5 uM after 3 to 24 hrs by MTS assay. The note with it: read-out: Activity. It is filed as functional.

*1 amine or outer side, *2 acyl side, *3 side chain or, on linkers, in order; H or OH if unused. Where a SMILES comes first, the peptide text is derived from it. Bridges are numbered along the chain shown (N, C = ends). Roman numbers before positions name the chains, in order. [ ]: non-standard residue; d: D form. Actinocin(1to9) = Cc1c2oc3c(C)ccc(C(=O)[*:2])c3nc-2c(C(=O)[*:1])c(N)c1=O; NMeV = CN[C@H](C(=O)O)C(C)C; Sar = CNCC(=O)O

Consider `C=C(C)[C@@H]1CC[C@]2(C(=O)O)CC[C@]3(C(=O)O)[C@H](CC[C@@H]4[C@@]5(C)CCC(=O)C(C)(C)[C@@H]5[C@@H](O)C[C@]43C)[C@@H]12`, for which the growth at 10 µM with NUGC [1] is > 50%.
Same read-out and setting: the result for `C=C(C)[C@@H]1CC[C@]2(C(=O)O)CC[C@]3(C(=O)O)[C@H](CC[C@@H]4[C@@]5(C)CCC(=O)C(C)(C)[C@@H]5[C@H](O)C[C@]43C)[C@@H]12` reads 20%.
As for `Cc1c2oc3c(C)ccc(C(=O)N[C@@H]4C(=O)N[C@H](C(C)C)C(=O)N5CCC[C@H]5C(=O)N(C)CC(=O)N(C)[C@@H](C(C)C)C(=O)O[C@@H]4C)c3nc-2c(C(=O)N[C@@H]2C(=O)N[C@H](C(C)C)C(=O)N3CCC[C@H]3C(=O)N(C)CC(=O)N(C)[C@@H](C(C)C)C(=O)O[C@@H]2C)c(N)c1=O` [DACTINOMYCIN] (I: T[dV]P[Sar][NMeV] / II: T[dV]P[Sar][NMeV]; ester I:1-I:C, II:1-II:C; linker I:N-II:N via Actinocin(1to9)), the growth at 5 µM in the test on NUGC [2] stood at 0%.
Take `CC(C)=CC(=O)O[C@@H]1/C=C/[C@@](C)(C/C=C/C(C)(C)O)C/C=C(/CO)C(=O)/C=C/[C@@]1(C)O` [VABSANOL A]: the growth at 10 µM in the test with NUGC [1] amounted to 15%.
The same measure, in the same setting: the result for `C=C(C)C(O)CC[C@]1(C)/C=C/[C@@H](OC(=O)C=C(C)C)[C@](C)(O)/C=C/C(=O)/C(CO)=C\C1` (stereo not given in full) [VIBSANOL B] reads > 50%.
